Inconclusive results and toxic doses are left out.
Tested on: BDF1 mice, B16 melanoma ip, median survival T/C
Assay: NCI In Vivo Anticancer Drug Screen. Data for tumor model B16 Melanoma (intraperitoneal) in B6D2F1 (BDF1) mice
Settings: endpoint: median survival time, higher = longer survival
Outline: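 Tumor-bearing mice received test compound or vehicle. Survival or tumor size was then measured in both groups. The treated-group figure was divided by the control-group figure.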

[1] = dose: 5.0 mg/kg/injection, schedule: Q01DX009 (ip), vehicle: Klucel (hydroxypropylcellulose) (HPC)
[2] = dose: 10.0 mg/kg/injection, schedule: Q01DX009 (ip), vehicle: Klucel (hydroxypropylcellulose) (HPC)
[3] = dose: 12.5 mg/kg/injection, schedule: Q01DX009 (ip), vehicle: saline with Tween-80
[4] = dose: 25.0 mg/kg/injection, schedule: Q01DX009 (ip), vehicle: saline with Tween-80
[5] = dose: 50.0 mg/kg/injection, schedule: Q01DX009 (ip), vehicle: saline with Tween-80
[6] = dose: 200.0 mg/kg/injection, schedule: Q01DX009 (ip), vehicle: saline with Tween-80
[7] = dose: 400.0 mg/kg/injection, schedule: Q01DX009 (ip), vehicle: saline with Tween-80
[8] = dose: 25.0 mg/kg/injection, schedule: Q01DX009 (ip), vehicle: saline
[9] = dose: 50.0 mg/kg/injection, schedule: Q01DX009 (ip), vehicle: saline
[10] = dose: 100.0 mg/kg/injection, schedule: Q01DX009 (ip), vehicle: saline
[11] = dose: 200.0 mg/kg/injection, schedule: Q01DX009 (ip), vehicle: saline
[12] = dose: 100.0 mg/kg/injection, schedule: Q01DX009 (ip), vehicle: saline with Tween-80
[13] = dose: 50.0 mg/kg/injection, schedule: Q01DX009 (ip), vehicle: Klucel (hydroxypropylcellulose) (HPC)
[14] = dose: 100.0 mg/kg/injection, schedule: Q01DX009 (ip), vehicle: Klucel (hydroxypropylcellulose) (HPC)
[15] = dose: 200.0 mg/kg/injection, schedule: Q01DX009 (ip), vehicle: Klucel (hydroxypropylcellulose) (HPC)
[16] = dose: 400.0 mg/kg/injection, schedule: Q01DX009 (ip), vehicle: Klucel (hydroxypropylcellulose) (HPC)

NC(Cc1cc([N+](=O)[O-])ccc1CN(CCCl)CCCl)C(=O)O (stereo unspecified) was tested, and the T/C (dose: 1.0 mg/kg/injection, schedule: Q01DX009 (ip), vehicle: Klucel (hydroxypropylcellulose) (HPC)) was 178 % of control, the T/C (dose: 1.88 mg/kg/injection, schedule: Q04DX003 (ip), vehicle: Klucel (hydroxypropylcellulose) (HPC)) was 158 % of control and the T/C (dose: 2.0 mg/kg/injection, schedule: Q01DX009 (ip), vehicle: Klucel (hydroxypropylcellulose) (HPC)) was 193 % of control. The T/C (dose: 3.12 mg/kg/injection, schedule: Q01DX001 (ip), vehicle: Klucel (hydroxypropylcellulose) (HPC)) was 164 % of control, the T/C (dose: 3.78 mg/kg/injection, schedule: Q04DX003 (ip), vehicle: Klucel (hydroxypropylcellulose) (HPC)) was 173 % of control and the T/C (dose: 4.0 mg/kg/injection, schedule: Q01DX009 (ip), vehicle: Klucel (hydroxypropylcellulose) (HPC)) was 240 % of control. The T/C (dose: 6.25 mg/kg/injection, schedule: Q01DX001 (ip), vehicle: Klucel (hydroxypropylcellulose) (HPC)) was 170 % of control, the T/C (dose: 7.5 mg/kg/injection, schedule: Q04DX003 (ip), vehicle: Klucel (hydroxypropylcellulose) (HPC)) was 185 % of control and the T/C (dose: 8.0 mg/kg/injection, schedule: Q01DX009 (ip), vehicle: Klucel (hydroxypropylcellulose) (HPC)) was 261 % of control. For the same molecule, the T/C (dose: 12.5 mg/kg/injection, schedule: Q01DX001 (ip), vehicle: Klucel (hydroxypropylcellulose) (HPC)) was 186 % of control and the T/C (dose: 15.0 mg/kg/injection, schedule: Q04DX003 (ip), vehicle: Klucel (hydroxypropylcellulose) (HPC)) was 164 % of control.
With O=C(NCCCl)NCCCl the T/C [1] was 94 % of control, the T/C [2] was 102 % of control and the T/C [3] was 95 % of control. For the same molecule, the T/C (dose: 20.0 mg/kg/injection, schedule: Q01DX009 (ip), vehicle: Klucel (hydroxypropylcellulose) (HPC)) was 88 % of control, the T/C [4] was 95 % of control and the T/C (dose: 40.0 mg/kg/injection, schedule: Q01DX009 (ip), vehicle: Klucel (hydroxypropylcellulose) (HPC)) was 91 % of control. For the same molecule, the T/C [5] was 100 % of control, the T/C (dose: 80.0 mg/kg/injection, schedule: Q01DX009 (ip), vehicle: Klucel (hydroxypropylcellulose) (HPC)) was 102 % of control and the T/C (dose: 160.0 mg/kg/injection, schedule: Q01DX009 (ip), vehicle: Klucel (hydroxypropylcellulose) (HPC)) was 94 % of control. The T/C [6] was 95 % of control, the T/C (dose: 320.0 mg/kg/injection, schedule: Q01DX009 (ip), vehicle: Klucel (hydroxypropylcellulose) (HPC)) was 91 % of control and the T/C [7] was 102 % of control.
COc1cccc(CC(C)[N+](=O)[O-])c1 (stereo unspecified) was tested, and the T/C (dose: 45.0 mg/kg/injection, schedule: Q01DX009 (ip), vehicle: saline with Tween-80) was 109 % of control, the T/C (dose: 90.0 mg/kg/injection, schedule: Q01DX009 (ip), vehicle: saline with Tween-80) was 100 % of control and the T/C (dose: 180.0 mg/kg/injection, schedule: Q01DX009 (ip), vehicle: saline with Tween-80) was 86 % of control.
For NC(CC(=O)O)C(=O)OCc1ccccc1 (stereo unspecified), the T/C [8] was 95 % of control, the T/C [9] was 108 % of control and the T/C [10] was 114 % of control. The T/C [11] was 105 % of control.
With CC(=O)O[C@H]1[C@H]2O[C@]23[C@@H]2CC[C@@H]4C[C@@H](O)CC[C@]4(C)[C@H]2CC[C@]3(C)[C@H]1c1ccc(=O)oc1 the T/C (dose: 3.75 mg/kg/injection, schedule: Q01DX009 (ip), vehicle: saline with Tween-80) was 92 % of control and the T/C (dose: 7.5 mg/kg/injection, schedule: Q01DX009 (ip), vehicle: saline with Tween-80) was 90 % of control.
COc1ccc2c(c1OC)C13CCCCC1C(C2)[N+](C)(C)CC3 (stereo unspecified) was tested, and the T/C (dose: 0.02 mg/kg/injection, schedule: Q01DX009 (ip), vehicle: Klucel (hydroxypropylcellulose) (HPC)) was 91 % of control, the T/C (dose: 0.04 mg/kg/injection, schedule: Q01DX009 (ip), vehicle: Klucel (hydroxypropylcellulose) (HPC)) was 89 % of control and the T/C (dose: 0.78 mg/kg/injection, schedule: Q01DX009 (ip), vehicle: Klucel (hydroxypropylcellulose) (HPC)) was 87 % of control. For the same molecule, the T/C (dose: 3.12 mg/kg/injection, schedule: Q01DX009 (ip), vehicle: Klucel (hydroxypropylcellulose) (HPC)) was 86 % of control.
For C[C@]12CC[C@@H]3c4ccc(Oc5nc(N6CC6)nc(N6CC6)n5)cc4CC[C@H]3[C@@H]1CCC2=O, the T/C (dose: 3.13 mg/kg/injection, schedule: Q01DX009 (ip), vehicle: saline) was 104 % of control, the T/C (dose: 6.25 mg/kg/injection, schedule: Q01DX009 (ip), vehicle: saline) was 113 % of control and the T/C (dose: 6.25 mg/kg/injection, schedule: Q04DX003 (ip), vehicle: saline) was 97 % of control. For the same molecule, the T/C (dose: 12.5 mg/kg/injection, schedule: Q01DX009 (ip), vehicle: saline) was 104 % of control, the T/C (dose: 12.5 mg/kg/injection, schedule: Q04DX003 (ip), vehicle: saline) was 97 % of control and the T/C (dose: 25.0 mg/kg/injection, schedule: Q04DX003 (ip), vehicle: saline) was 102 % of control. The T/C (dose: 50.0 mg/kg/injection, schedule: Q04DX003 (ip), vehicle: saline) was 97 % of control.
For CC(C)=CCOc1ccc2ccc(=O)oc2c1, the T/C (dose: 5.0 mg/kg/injection, schedule: Q01DX009 (ip), vehicle: saline with Tween-80) was 108 % of control, the T/C (dose: 10.0 mg/kg/injection, schedule: Q01DX009 (ip), vehicle: saline with Tween-80) was 105 % of control and the T/C (dose: 20.0 mg/kg/injection, schedule: Q01DX009 (ip), vehicle: saline with Tween-80) was 99 % of control.
CC(=O)CCc1ccc(O)cc1 was tested, and the T/C [12] was 90 % of control, the T/C [6] was 100 % of control and the T/C [7] was 92 % of control.
C/C=C(/C#N)c1ccccc1 was tested, and the T/C (dose: 50.0 mg/kg/injection, schedule: Q04DX003 (ip), vehicle: saline with Tween-80) was 100 % of control and the T/C (dose: 100.0 mg/kg/injection, schedule: Q04DX003 (ip), vehicle: saline with Tween-80) was 97 % of control.
In the case of COC(=O)C(N)CSCc1ccccc1 (stereo unspecified), the T/C [10] is reported as 95 % of control and the T/C [11] is reported as 106 % of control.
COc1cc2c(cc1OC)-c1ccc3cc4c(cc3c1N(C)C2)OCO4 was tested, and the T/C (dose: 5.0 mg/kg/injection, schedule: Q01DX009 (ip), vehicle: water) was 103 % of control, the T/C (dose: 10.0 mg/kg/injection, schedule: Q01DX009 (ip), vehicle: water) was 102 % of control and the T/C (dose: 20.0 mg/kg/injection, schedule: Q01DX009 (ip), vehicle: water) was 100 % of control. The T/C (dose: 40.0 mg/kg/injection, schedule: Q01DX009 (ip), vehicle: water) was 101 % of control and the T/C (dose: 80.0 mg/kg/injection, schedule: Q01DX009 (ip), vehicle: water) was 102 % of control.
For CCCCCCCCC(=O)OCCNC(=O)C(C)OC(=O)CCCCCCCC (stereo unspecified), the T/C (dose: 25.0 mg/kg/injection, schedule: Q01DX009 (ip), vehicle: Klucel (hydroxypropylcellulose) (HPC)) was 102 % of control, the T/C [13] was 103 % of control and the T/C [14] was 92 % of control.
With CC1(C)SC(C(NC(=O)COc2ccccc2)C(=O)O)NC1C(=O)O (stereo unspecified) the T/C [13] was 107 % of control, the T/C [14] was 110 % of control and the T/C [15] was 105 % of control.
In the case of NN1CCCC1, the T/C [8] is reported as 110 % of control, the T/C [9] is reported as 102 % of control and the T/C [10] is reported as 94 % of control.
Brc1ccc2c(c1)-c1ccccc1C1=NCCN12 was tested, and the T/C (dose: 2.5 mg/kg/injection, schedule: Q01DX009 (ip), vehicle: Klucel (hydroxypropylcellulose) (HPC)) was 118 % of control, the T/C [1] was 103 % of control and the T/C (dose: 5.0 mg/kg/injection, schedule: Q04DX003 (ip), vehicle: saline with Tween-80) was 100 % of control. The T/C [2] was 93 % of control, the T/C (dose: 10.0 mg/kg/injection, schedule: Q04DX003 (ip), vehicle: saline with Tween-80) was 102 % of control and the T/C (dose: 10.0 mg/kg/injection, schedule: Q04DX003 (ip), vehicle: saline) was 105 % of control. For the same molecule, the T/C (dose: 20.0 mg/kg/injection, schedule: Q04DX003 (ip), vehicle: saline with Tween-80) was 100 % of control.
In the case of COc1ccc(N=O)c(O)c1, the T/C (dose: 6.25 mg/kg/injection, schedule: Q01DX009 (ip), vehicle: saline with Tween-80) is reported as 97 % of control, the T/C [3] is reported as 97 % of control and the T/C [4] is reported as 90 % of control. The T/C [8] was 197 % of control, the T/C [5] was 109 % of control and the T/C [9] was 95 % of control. For the same molecule, the T/C [10] was 90 % of control.
CCOc1ccccc1NC(=O)Nc1cccc(Cl)c1 was tested, and the T/C [14] was 106 % of control, the T/C [15] was 96 % of control and the T/C [16] was 106 % of control.
For COc1cccc(O)c1, the T/C [4] was 97 % of control, the T/C [5] was 96 % of control and the T/C [12] was 91 % of control. For the same molecule, the T/C [6] was 86 % of control.
In the case of COc1ccc(C(OC2OC(n3cnc4c(=S)nc(N)[nH]c43)CC2OC(C)=O)(c2ccccc2)c2ccc(OC)cc2)cc1 (stereo unspecified), the T/C [14] is reported as 90 % of control, the T/C [15] is reported as 96 % of control and the T/C [16] is reported as 93 % of control.

— PubChem BioAssay AID192 (DTP/NCI, 2004)
